According to patent publication US5225532A, “Symmetrical bipeptides containing a polyalkylene glycol residue, method of preparation and use in the assay of proteases” (Serbio, priority 1990, dated 1993):
Where a SMILES comes first, the peptide text is derived from it. [ ]: non-standard residue; d: D form. The star is where a group is joined. Cha = N[C@@H](CC1CCCCC1)C(=O)O; dChg = N[C@@H](C(=O)O)C1CCCCC1; pNA = O=[N+]([O-])c1ccc(N*)cc1; dAbu = CC[C@@H](N)C(=O)O; Abu = CC[C@H](N)C(=O)O; Ms = CS(=O)(=O)*

Experiments:
Assay type in all cases: biochemical
Factor Xa = Factor Xa (Homo sapiens, UniProt P00742); assay: Enzymic hydrolysis of chromogenic substrate by Factor Xa (ΔOD/min); details: equimolar doses, activity of reference CP 1 taken as 100%
Method: (§1) The tripeptide compounds of formula I and their addition salts are useful in the determination of the enzymes involved in hemostasis. In particular, they constitute specific substrates for Factor Xa, plasmin or thrombin. The recommended method of determining these enzymes comprises bringing a given amount of a tripeptide of formula I or of one of its addition salts (at a concentration of the order of 10 mg/ml) into contact, in an appropriate aqueous liquid medium such as a buffered isotonic solution, with a test sample (diluted if appropriate) which may contain the target enzyme, for at least 0.5 h at a temperature of between RT and 40° C., especially 37° C.
(§2) The activity of the tripeptides according to the invention towards enzymes involved in hemostasis was determined by conventional methods such as those described in EP-A-0 280 160 (see page 14), the hydrolysis rate being assessed by the variation in optical density with time (ΔOD/min). The results obtained have been collated in Table II below, where the activity of reference products (CP 1 to CP 3) is specified as being equal to 100% for the sake of convenience.
(§3) Table II below summarizes the results of the comparative tests which were carried out at equimolar doses with the products of the invention and with standard substances, whose activity was taken as being equal to 100%.

Thrombin = Thrombin (Homo sapiens, UniProt P00734); assay: Enzymic hydrolysis of chromogenic substrate by thrombin (ΔOD/min); details: for Activity towards Thrombin (hydrolysis rate relative to reference): equimolar doses, activity of reference CP 2 taken as 100%, hydrolysis rate as ΔOD/min
Method: as §1, §2, §3

Plasmin = Plasmin (Homo sapiens, UniProt P00747); assay: Enzymic hydrolysis of chromogenic substrate by plasmin (ΔOD/min); details: equimolar doses, activity of reference CP 3 taken as 100%
Method: as §1, §2, §3

Sequence of Factor Xa (P00742 235-488 limits assumed): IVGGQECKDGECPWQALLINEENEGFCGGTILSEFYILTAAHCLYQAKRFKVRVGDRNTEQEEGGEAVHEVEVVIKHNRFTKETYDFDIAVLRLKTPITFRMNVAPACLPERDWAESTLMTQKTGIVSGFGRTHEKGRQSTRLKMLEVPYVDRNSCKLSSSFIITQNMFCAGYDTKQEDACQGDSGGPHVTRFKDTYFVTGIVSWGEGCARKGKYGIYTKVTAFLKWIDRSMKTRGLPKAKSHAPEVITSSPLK
Sequence of Factor Xa (P00742 41-179 partner limits assumed): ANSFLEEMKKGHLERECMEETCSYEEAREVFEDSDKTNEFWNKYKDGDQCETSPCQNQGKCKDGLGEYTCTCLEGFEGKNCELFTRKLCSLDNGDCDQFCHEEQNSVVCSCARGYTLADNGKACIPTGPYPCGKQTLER
Sequence of Plasmin (P00747 581-810 limits assumed, species assumed): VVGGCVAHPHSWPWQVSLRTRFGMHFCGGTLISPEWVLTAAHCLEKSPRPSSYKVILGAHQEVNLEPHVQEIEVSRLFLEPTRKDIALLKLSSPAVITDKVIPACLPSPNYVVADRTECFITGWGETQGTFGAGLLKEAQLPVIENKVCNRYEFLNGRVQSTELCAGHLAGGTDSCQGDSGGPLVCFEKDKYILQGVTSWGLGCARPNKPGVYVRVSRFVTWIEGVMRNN
Sequence of Plasmin (P00747 97-580 partner limits assumed, species assumed): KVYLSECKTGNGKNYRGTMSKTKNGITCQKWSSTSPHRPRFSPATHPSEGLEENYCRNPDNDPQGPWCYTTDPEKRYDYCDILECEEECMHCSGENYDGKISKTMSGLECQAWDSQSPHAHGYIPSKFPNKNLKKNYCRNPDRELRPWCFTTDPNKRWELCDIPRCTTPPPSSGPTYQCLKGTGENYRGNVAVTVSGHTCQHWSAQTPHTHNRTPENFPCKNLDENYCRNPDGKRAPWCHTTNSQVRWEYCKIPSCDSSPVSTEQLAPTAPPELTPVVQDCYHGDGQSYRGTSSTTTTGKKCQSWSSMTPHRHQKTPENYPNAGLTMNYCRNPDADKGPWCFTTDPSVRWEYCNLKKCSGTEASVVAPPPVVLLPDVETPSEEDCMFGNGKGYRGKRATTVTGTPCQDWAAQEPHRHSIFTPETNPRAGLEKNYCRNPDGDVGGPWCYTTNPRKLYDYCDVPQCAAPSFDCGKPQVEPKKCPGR

Molecule	Activity towards Xa (hydrolysis rate relative to reference) (Factor Xa) [%]	Activity towards Thrombin (hydrolysis rate relative to reference) (Thrombin) [%]	Activity towards Plasmin (hydrolysis rate relative to reference) (Plasmin) [%]	Sensitivity towards thrombin compared with reference substrate (Thrombin; in words, versus CP 1 as printed)
CC(C)C[C@@H](NS(C)(=O)=O)C(=O)NCC(=O)N[C@@H](CCCNC(=N)N)C(=O)Nc1ccc([N+](=O)[O-])cc1 [CP 1, MeSO2D-Leu--GlyL-Arg-pNA.AcOH, reference compound] (Ms-[dL]-Gly-Arg-pNA)	100	18	30	–
CC[C@H](NC(=O)[C@H](N)C1CCCCC1)C(=O)N[C@@H](CCCNC(=N)N)C(=O)Nc1ccc([N+](=O)[O-])cc1 [CP 2, HD-CHG-L-Abu-L-Arg-pNA.2AcOH, reference compound] (H-[dChg]-[Abu]-Arg-pNA)	14	100	77	–
CC[C@@H](N)C(=O)N[C@@H](CC1CCCCC1)C(=O)N[C@@H](CCCNC(=N)N)C(=O)Nc1ccc([N+](=O)[O-])cc1 [CP 3, HD-Abu-L-CHA-L-Arg-pNA.2AcOH, reference compound] (H-[dAbu]-[Cha]-Arg-pNA)	14	10	100	–
PEG200 (CO-D-CHA-Gly-L-Arg-pNA)2 [Ex. 7]	45	21	112	–
PEG200 (D-Glu(OBzl)-L-Pro-L-Arg-pNA)2.2AcOH [Ex. 4]	11	45	289	–
PEG200 (D-Leu-Gly-L-Arg-pNA)2.2AcOH [Ex. 6]	105	23	188	–
PEG200 (D-Nle-L-CHA-L-Arg-pNA)2.2AcOH [Ex. 5]	20	110	15	more sensitive than the reference substrate CP 1
PEG200 (Gly-L-Pro-L-Arg-pNA)2.2AcOH [Ex. 2]	6	34	130	–
PEG300 (D-Leu-Gly-L-Arg-pNA)2.2AcOH [Ex. 8]	60	25	150	–
PEG400 (D-Leu-Gly-L-Arg-pNA)2.2AcOH [Ex. 9]	74	34	165	–
PEG600 (CO-Gly-L-Pro-L-Arg-pNA)2 [Ex. 3]	10	50	122	–
